Assay results reported in PubChem BioAssay AID248 (DTP/NCI, 2004).
“And” between values parts separate entries of the source, which are not always exact repeats. Equal values may be shown once. Toxic doses and inconclusive results are not listed. Rule as the data show it: active = T/C of 150% or more; inactive = T/C below 125%.

Test system: L1210 leukemia ip in BDF1 mice, survival T/C
Experiment: NCI In Vivo Anticancer Drug Screen. Data for tumor model L1210 Leukemia (intraperitoneal) in B6D2F1 (BDF1) mice
Details: endpoint: mean survival time, higher = longer survival
Outline: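 Antitumor effect is assessed in tumor-bearing animals. Survival in the compound arm is compared with a vehicle-dosed control arm and expressed as their quotient.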

[1] = dose: 100.0 mg/kg/injection, schedule: Q01DX009 (ip), vehicle: saline with Tween-80
[2] = dose: 200.0 mg/kg/injection, schedule: Q01DX009 (ip), vehicle: saline with Tween-80
[3] = dose: 75.0 mg/kg/injection, schedule: Q01DX001 (ip), vehicle: other
[4] = dose: 150.0 mg/kg/injection, schedule: Q01DX001 (ip), vehicle: other
[5] = dose: 300.0 mg/kg/injection, schedule: Q01DX001 (ip), vehicle: other
[6] = dose: 100.0 mg/kg/injection, schedule: Q01DX009 (ip), vehicle: Klucel (hydroxypropylcellulose) (HPC)
[7] = dose: 100.0 mg/kg/injection, schedule: Q04DX003 (ip), vehicle: Klucel (hydroxypropylcellulose) (HPC)
[8] = dose: 200.0 mg/kg/injection, schedule: Q01DX009 (ip), vehicle: Klucel (hydroxypropylcellulose) (HPC)
[9] = dose: 200.0 mg/kg/injection, schedule: Q04DX003 (ip), vehicle: Klucel (hydroxypropylcellulose) (HPC)
[10] = dose: 400.0 mg/kg/injection, schedule: Q01DX009 (ip), vehicle: Klucel (hydroxypropylcellulose) (HPC)
[11] = dose: 400.0 mg/kg/injection, schedule: Q04DX003 (ip), vehicle: Klucel (hydroxypropylcellulose) (HPC)
[12] = dose: 100.0 mg/kg/injection, schedule: Q01DX001 (ip), vehicle: saline
[13] = dose: 100.0 mg/kg/injection, schedule: Q04DX003 (ip), vehicle: saline
[14] = dose: 200.0 mg/kg/injection, schedule: Q01DX001 (ip), vehicle: saline
[15] = dose: 200.0 mg/kg/injection, schedule: Q04DX003 (ip), vehicle: saline
[16] = dose: 400.0 mg/kg/injection, schedule: Q01DX001 (ip), vehicle: saline
[17] = dose: 100.0 mg/kg/injection, schedule: Q04DX002 (ip), vehicle: Klucel (hydroxypropylcellulose) (HPC)
[18] = dose: 200.0 mg/kg/injection, schedule: Q04DX002 (ip), vehicle: Klucel (hydroxypropylcellulose) (HPC)
[19] = dose: 400.0 mg/kg/injection, schedule: Q04DX002 (ip), vehicle: Klucel (hydroxypropylcellulose) (HPC)
[20] = dose: 400.0 mg/kg/injection, schedule: Q01DX009 (ip), vehicle: saline with Tween-80
[21] = dose: 25.0 mg/kg/injection, schedule: Q04DX003 (ip), vehicle: saline
[22] = dose: 50.0 mg/kg/injection, schedule: Q04DX003 (ip), vehicle: saline

Measured: T/C

CC(C)C[C@H]1C(=O)N2CCC[C@H]2[C@]2(O)O[C@](NC(=O)[C@@H]3C=C4c5cccc6[nH]c(Br)c(c56)C[C@H]4N(C)C3)(C(C)C)C(=O)N12
inactive: [1] 105 % of control | [2] 106 % of control

C[N+]1(Cc2ccccc2)CCC2(C(N)=O)CC1Cc1ccccc12 (configuration not stated)
inactive: [3] 105 % of control | [4] 100 % of control | [5] 93 % of control

O=C1c2ccccc2C(Br)(c2ccccc2)C1Br (configuration not stated)
inactive: dose: 12.5 mg/kg/injection, schedule: Q01DX009 (ip), vehicle: other 93 % of control | dose: 25.0 mg/kg/injection, schedule: Q01DX009 (ip), vehicle: other 89 % of control

CC(=O)Oc1cccc(OC(C)=O)c1OC(C)=O
inactive: [6] 103 % of control | [7] 107 % of control | [8] 100 % of control | [9] 97 % of control | [10] 97 % of control | [11] 100 % of control

CCOC(=O)NCc1ccc(Cl)c(C(=O)O)c1
inactive: [12] 105 % of control | [13] 88 % of control | [14] 94 % of control | [15] 101 % of control | [16] 93 % of control | dose: 400.0 mg/kg/injection, schedule: Q04DX003 (ip), vehicle: saline 93 % of control

OC1CC(c2ccccc2)C1(c1ccccc1)c1ccccc1 (configuration not stated)
inactive: [3] 104 % of control | [4] 102 % of control | [5] 94 % of control

O=C(O)CN(Cc1ccccc1)Cc1ccccc1
inactive: [7] 95 % of control | [9] 98 % of control | [11] 98 % of control

CCOc1ccc2ccsc2c1
inactive: [12] 98 % of control | [14] 98 % of control | [16] 96 % of control

C#CC[As+](c1ccccc1)(c1ccccc1)c1ccccc1
inactive: dose: 6.25 mg/kg/injection, schedule: Q01DX009 (ip), vehicle: Klucel (hydroxypropylcellulose) (HPC) 103 % of control | dose: 12.5 mg/kg/injection, schedule: Q04DX003 (ip), vehicle: Klucel (hydroxypropylcellulose) (HPC) 102 % of control

Nc1ncnc2nc(C3OC(CO)C(O)C3O)[nH]c12 (configuration not stated)
inactive: dose: 100.0 mg/kg/injection, schedule: Q01DX005 (ip), vehicle: saline 96 % of control | dose: 200.0 mg/kg/injection, schedule: Q01DX005 (ip), vehicle: saline 96 % of control

CC1CCC(C(O)(C(=O)O)C2CCCCC2)CC1C (configuration not stated)
inactive: dose: 75.0 mg/kg/injection, schedule: Q01DX001 (ip), vehicle: carboxymethylcellulose (CMC) 97 % of control | dose: 150.0 mg/kg/injection, schedule: Q01DX001 (ip), vehicle: carboxymethylcellulose (CMC) 105 % of control | dose: 300.0 mg/kg/injection, schedule: Q01DX001 (ip), vehicle: carboxymethylcellulose (CMC) 100 % of control

N#CC(Nc1c(N)nc(N)nc1N)c1ccc(N(CCCl)CCCl)cc1 (configuration not stated)
inactive: dose: 50.0 mg/kg/injection, schedule: Q01DX001 (ip), vehicle: carboxymethylcellulose (CMC) 105 % of control | dose: 100.0 mg/kg/injection, schedule: Q01DX001 (ip), vehicle: carboxymethylcellulose (CMC) 103 % of control | dose: 200.0 mg/kg/injection, schedule: Q01DX001 (ip), vehicle: carboxymethylcellulose (CMC) 103 % of control | dose: 400.0 mg/kg/injection, schedule: Q01DX001 (ip), vehicle: carboxymethylcellulose (CMC) 100 % of control

CCC(CC)N(C)C(C)(C)CO
inactive: dose: 100.0 mg/kg/injection, schedule: Q04DX003 (ip), vehicle: saline sonified 90 % of control | dose: 200.0 mg/kg/injection, schedule: Q04DX003 (ip), vehicle: saline sonified 87 % of control

COc1ccc(NC(=O)Oc2cccc(OC(=O)c3ccccc3)c2)cc1
inactive: dose: 100.0 mg/kg/injection, schedule: Q01DX001 (ip), vehicle: Klucel (hydroxypropylcellulose) (HPC) 96 % of control | [6] 104 % of control and 106 % of control | [17] 93 % of control and 103 % of control and 106 % of control | [7] 98 % of control | dose: 200.0 mg/kg/injection, schedule: Q01DX001 (ip), vehicle: Klucel (hydroxypropylcellulose) (HPC) 93 % of control | [8] 100 % of control and 103 % of control | [18] 99 % of control and 100 % of control and 103 % of control | [9] 98 % of control | dose: 400.0 mg/kg/injection, schedule: Q01DX001 (ip), vehicle: Klucel (hydroxypropylcellulose) (HPC) 93 % of control | [10] 97 % of control and 98 % of control | [19] 93 % of control and 97 % of control and 99 % of control | [11] 91 % of control

CC(NC(=O)Oc1cccc(NC(=O)N(C)C)c1)C(C)(C)C (configuration not stated)
inactive: [1] 109 % of control | [2] 96 % of control | [20] 98 % of control

O=C(OCc1ccccc1)Oc1ccc2ccccc2c1
inactive: [7] 102 % of control | [9] 95 % of control | [11] 95 % of control

Cl/C=C\C[N+]12CN3CN(CN(C3)C1)C2
inactive: [21] 100 % of control | [22] 94 % of control

O=C(COc1ccc(F)cc1)N(CCO)CCO
inactive: [17] 96 % of control | [18] 92 % of control | [19] 114 % of control

NC(=S)N/N=C/c1ccc([N+](=O)[O-])cc1
inactive: dose: 12.5 mg/kg/injection, schedule: Q01DX001 (ip), vehicle: saline with Tween-80 95 % of control | dose: 25.0 mg/kg/injection, schedule: Q01DX001 (ip), vehicle: saline with Tween-80 95 % of control | dose: 50.0 mg/kg/injection, schedule: Q01DX001 (ip), vehicle: saline with Tween-80 91 % of control

CCOC(=O)CCCc1c[nH]c2ccccc12
inactive: [1] 101 % of control | dose: 100.0 mg/kg/injection, schedule: Q04DX003 (ip), vehicle: saline with Tween-80 95 % of control | [2] 101 % of control | dose: 200.0 mg/kg/injection, schedule: Q04DX003 (ip), vehicle: saline with Tween-80 100 % of control | [20] 102 % of control | dose: 400.0 mg/kg/injection, schedule: Q04DX003 (ip), vehicle: saline with Tween-80 95 % of control

O=S(=O)(Cc1ccccc1)C(Cl)(Cl)c1ccccc1
inactive: [12] 91 % of control | [6] 96 % of control | [7] 110 % of control | [14] 107 % of control | [8] 102 % of control | [9] 104 % of control | [16] 105 % of control | [10] 95 % of control | [11] 103 % of control

c1coc(CCc2nc3ccccc3[nH]2)c1
inactive: dose: 50.0 mg/kg/injection, schedule: Q01DX009 (ip), vehicle: Klucel (hydroxypropylcellulose) (HPC) 121 % of control | [6] 116 % of control | [7] 96 % of control | [8] 100 % of control | [9] 100 % of control

CC12CCCCC1CCC1C2CCC2(C)C(C(=O)O)CCC12 (configuration not stated)
inactive: dose: 100.0 mg/kg/injection, schedule: Q04DX002 (ip), vehicle: gum acacia 89 % of control | dose: 200.0 mg/kg/injection, schedule: Q04DX002 (ip), vehicle: gum acacia 99 % of control | dose: 400.0 mg/kg/injection, schedule: Q04DX002 (ip), vehicle: gum acacia 92 % of control

CC(=O)O[C@H]1CC[C@]2(C)C3=C([C@@H](OO)C[C@H]2C1(C)C)[C@]1(C)CC[C@H]([C@H](C)CCCC(C)C)[C@@]1(C)CC3
inactive: dose: 100.0 mg/kg/injection, schedule: Q01DX001 (ip), vehicle: other 97 % of control | dose: 200.0 mg/kg/injection, schedule: Q01DX001 (ip), vehicle: other 95 % of control | dose: 400.0 mg/kg/injection, schedule: Q01DX001 (ip), vehicle: other 95 % of control

CCN(CC)C(=O)C1C=C2c3cccc4c3c(c(Br)n4C)CC2N(C)C1 (configuration not stated)
inactive: dose: 12.5 mg/kg/injection, schedule: Q01DX009 (ip), vehicle: saline 102 % of control | dose: 25.0 mg/kg/injection, schedule: Q01DX009 (ip), vehicle: saline 120 % of control | [21] 103 % of control | dose: 50.0 mg/kg/injection, schedule: Q01DX009 (ip), vehicle: saline 112 % of control | [22] 98 % of control | dose: 100.0 mg/kg/injection, schedule: Q01DX009 (ip), vehicle: saline 107 % of control | [13] 104 % of control | [15] 106 % of control

N#CC1(NC(Cc2ccccc2)c2ccccc2)CCCC1 (configuration not stated)
inactive: [6] 114 % of control | [8] 95 % of control | [10] 92 % of control

CCN(CC)Cc1ccccc1COC(=O)c1cccc(Cl)c1
inactive: [17] 103 % of control | [18] 103 % of control | [19] 92 % of control
